Results as given in patent US10150760B2, “Compounds for use in preparing heterocyclic triazole agonists of the APJ receptor” (AMGEN INC., priority 2016, dated 2018).

Molecular target: human APJ receptor (Homo sapiens (Human), UniProt P35414)
Assay: [35S]GTPγS binding assay on membranes from CHO cells stably expressing human APJ receptor
Assay type: biochemical
Details: read-out: Activity hAPJ SPA EC50 IP
Summary of the method: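 Agonist-driven [35S]GTPγS (0.2 nM) binding was measured over 90 min at room temperature on human APJ-expressing CHO membranes with bead capture, in buffer containing 3 μM GDP, 200 mM NaCl and 5 mM MgCl2 (pH 7.5). Excess unlabelled GTPγS (100 μM) gave nonspecific signal; EC50 from non-linear fits.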

Chain of human APJ receptor (P35414 whole entry): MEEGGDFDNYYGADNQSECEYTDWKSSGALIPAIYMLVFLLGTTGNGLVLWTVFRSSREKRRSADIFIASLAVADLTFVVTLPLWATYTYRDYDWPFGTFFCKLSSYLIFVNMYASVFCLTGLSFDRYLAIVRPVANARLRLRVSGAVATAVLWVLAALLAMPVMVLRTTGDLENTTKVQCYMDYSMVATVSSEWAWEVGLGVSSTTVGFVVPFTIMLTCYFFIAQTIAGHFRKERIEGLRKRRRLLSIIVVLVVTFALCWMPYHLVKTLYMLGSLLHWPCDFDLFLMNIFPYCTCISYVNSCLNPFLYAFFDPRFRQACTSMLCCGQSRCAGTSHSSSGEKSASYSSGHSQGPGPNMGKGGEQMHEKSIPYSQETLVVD

COc1cccc(OC)c1-n1c(NS(=O)(=O)[C@@H](C)[C@H](C)c2cnc(C)cn2)nnc1[C@H]1CCOC1 (single isomer, unassigned) [Example 132.0, (2S,3R)-N-(4-(2,6-dimethoxyphenyl)-5-((R)-tetrahydrofuran-3-yl)-4H-1,2,4-triazol-3-yl)-3-(5-methylpyrazin-2-yl)butane-2-sulfonamide or (2S,3R)-N-(4-(2,6-dimethoxyphenyl)-5-((S)-tetrahydrofuran-3-yl)-4H-1,2,4-triazol-3-yl)-3-(5-methylpyrazin-2-yl)butane-2-sulfonamide]
EC50: 140 nM

COc1cccc(OC)c1-n1c(NS(=O)(=O)[C@@H](C)[C@H](C)c2cnc(C)cn2)nnc1[C@H]1CCOC1 (single isomer, unassigned) [Example 133.0, (2S,3R)-N-(4-(2,6-dimethoxyphenyl)-5-((R)-tetrahydrofuran-3-yl)-4H-1,2,4-triazol-3-yl)-3-(5-methylpyrazin-2-yl)butane-2-sulfonamide or (2S,3R)-N-(4-(2,6-dimethoxyphenyl)-5-((S)-tetrahydrofuran-3-yl)-4H-1,2,4-triazol-3-yl)-3-(5-methylpyrazin-2-yl)butane-2-sulfonamide]
EC50: 320 nM

COc1cccc(OC)c1-n1c(NS(=O)(=O)[C@@H](C)[C@H](C)c2cnc(C)cn2)nnc1[C@H]1CCCOC1 (single isomer, unassigned) [Example 134.0, (2S,3R)-N-(4-(2,6-dimethoxyphenyl)-5-((R)-tetrahydro-2H-pyran-3-yl)-4H-1,2,4-triazol-3-yl)-3-(5-methylpyrazin-2-yl)butane-2-sulfonamide or (2S,3R)-N-(4-(2,6-dimethoxyphenyl)-5-((S)-tetrahydro-2H-pyran-3-yl)-4H-1,2,4-triazol-3-yl)-3-(5-methylpyrazin-2-yl)butane-2-sulfonamide]
EC50: 400 nM

COc1cccc(OC)c1-n1c(NS(=O)(=O)[C@@H](C)[C@H](C)c2cnc(C)cn2)nnc1[C@H]1CCCOC1 (single isomer, unassigned) [Example 135.0, (2S,3R)-N-(4-(2,6-dimethoxyphenyl)-5-((R)-tetrahydro-2H-pyran-3-yl)-4H-1,2,4-triazol-3-yl)-3-(5-methylpyrazin-2-yl)butane-2-sulfonamide or (2S,3R)-N-(4-(2,6-dimethoxyphenyl)-5-((S)-tetrahydro-2H-pyran-3-yl)-4H-1,2,4-triazol-3-yl)-3-(5-methylpyrazin-2-yl)butane-2-sulfonamide]
EC50: 35 nM

COc1cccc(OC)c1-n1c(NS(=O)(=O)[C@@H](C)[C@@H](OC(C)C)c2ncc(C)cn2)nnc1[C@H]1CCCOC1 (single isomer, unassigned) [Example 136.0, (1S,2S)-N-(4-(2,6-dimethoxyphenyl)-5-((R)-tetrahydro-2H-pyran-3-yl)-4H-1,2,4-triazol-3-yl)-1-isopropoxy-1-(5-methylpyrimidin-2-yl)propane-2-sulfonamide or (1S,2S)-N-(4-(2,6-dimethoxyphenyl)-5-((S)-tetrahydro-2H-pyran-3-yl)-4H-1,2,4-triazol-3-yl)-1-isopropoxy-1-(5-methylpyrimidin-2-yl)propane-2-sulfonamide]
EC50: 130 nM

COc1cccc(OC)c1-n1c(NS(=O)(=O)[C@@H](C)[C@@H](OC(C)C)c2ncc(C)cn2)nnc1[C@H]1CCCOC1 (single isomer, unassigned) [Example 137.0, (1S,2S)-N-(4-(2,6-dimethoxyphenyl)-5-((R)-tetrahydro-2H-pyran-3-yl)-4H-1,2,4-triazol-3-yl)-1-isopropoxy-1-(5-methylpyrimidin-2-yl)propane-2-sulfonamide or (1S,2S)-N-(4-(2,6-dimethoxyphenyl)-5-((S)-tetrahydro-2H-pyran-3-yl)-4H-1,2,4-triazol-3-yl)-1-isopropoxy-1-(5-methylpyrimidin-2-yl)propane-2-sulfonamide]
EC50: 4.8 nM

COc1ncnc(OC)c1-n1c(NS(=O)(=O)[C@@H](C)[C@H](OC)c2ncc(Cl)cn2)nnc1[C@H]1CCC(C)(C)O1 (single isomer, unassigned) [Example 138.0, (1R,2S)-1-(5-chloropyrimidin-2-yl)-N-(4-(4,6-dimethoxypyrimidin-5-yl)-5-((S)-5,5-dimethyltetrahydrofuran-2-yl)-4H-1,2,4-triazol-3-yl)-1-methoxypropane-2-sulfonamide or (1R,2S)-1-(5-chloropyrimidin-2-yl)-N-(4-(4,6-dimethoxypyrimidin-5-yl)-5-((R)-5,5-dimethyltetrahydrofuran-2-yl)-4H-1,2,4-triazol-3-yl)-1-methoxypropane-2-sulfonamide]
EC50: 120 nM

COc1cccc(OC)c1-n1c(NS(=O)(=O)[C@@H](C)[C@H](O)c2ncc(C)cn2)nnc1[C@H]1CCOC1 (single isomer, unassigned) [Example 141.0, (1R,2S)-N-(4-(2,6-dimethoxyphenyl)-5-((S)-tetrahydrofuran-3-yl)-4H-1,2,4-triazol-3-yl)-1-hydroxy-1-(5-methylpyrimidin-2-yl)propane-2-sulfonamide or (1R,2S)-N-(4-(2,6-dimethoxyphenyl)-5-((R)-tetrahydrofuran-3-yl)-4H-1,2,4-triazol-3-yl)-1-hydroxy-1-(5-methylpyrimidin-2-yl)propane-2-sulfonamide]
EC50: 200 nM

COc1cccc(OC)c1-n1c(NS(=O)(=O)CCc2ccc(Cl)cc2)nnc1[C@@H]1CCCO1 (single isomer, unassigned) [Example 144.0, (S)-2-(4-Chlorophenyl)-N-(4-(2,6-dimethoxyphenyl)-5-(tetrahydrofuran-2-yl)-4H-1,2,4-triazol-3-yl)ethanesulfonamide or (R)-2-(4-chlorophenyl)-N-(4-(2,6-dimethoxyphenyl)-5-(tetrahydrofuran-2-yl)-4H-1,2,4-triazol-3-yl)ethanesulfonamide]
EC50: 80 nM

COc1cccc(OC)c1-n1c(NS(=O)(=O)CCc2ccc(Cl)cc2)nnc1[C@@H]1CCCO1 (single isomer, unassigned) [Example 145.0, (S)-2-(4-Chlorophenyl)-N-(4-(2,6-dimethoxyphenyl)-5-(tetrahydrofuran-2-yl)-4H-1,2,4-triazol-3-yl)ethanesulfonamide or (R)-2-(4-chlorophenyl)-N-(4-(2,6-dimethoxyphenyl)-5-(tetrahydrofuran-2-yl)-4H-1,2,4-triazol-3-yl)ethanesulfonamide]
EC50: 830 nM

COc1cccc(OC)c1-n1c(NS(=O)(=O)CCc2ccc(F)cc2C#N)nnc1[C@@H]1CCCO1 (single isomer, unassigned) [Example 147.0, (S)-2-(2-Cyano-4-fluorophenyl)-N-(4-(2,6-dimethoxyphenyl)-5-(tetrahydrofuran-2-yl)-4H-1,2,4-triazol-3-yl)ethanesulfonamide or (R)-2-(2-cyano-4-fluorophenyl)-N-(4-(2,6-dimethoxyphenyl)-5-(tetrahydrofuran-2-yl)-4H-1,2,4-triazol-3-yl)ethanesulfonamide]
EC50: 37 nM

COc1cccc(OC)c1-n1c(NS(=O)(=O)CCc2ccc(F)cc2C#N)nnc1[C@@H]1CCCO1 (single isomer, unassigned) [Example 148.0, (S)-2-(2-Cyano-4-fluorophenyl)-N-(4-(2,6-dimethoxyphenyl)-5-(tetrahydrofuran-2-yl)-4H-1,2,4-triazol-3-yl)ethanesulfonamide or (R)-2-(2-cyano-4-fluorophenyl)-N-(4-(2,6-dimethoxyphenyl)-5-(tetrahydrofuran-2-yl)-4H-1,2,4-triazol-3-yl)ethanesulfonamide]
EC50: 680 nM

COc1cccc(OC)c1-n1c(NS(=O)(=O)[C@@H](C)[C@H](C)c2ncc(C#N)cn2)nnc1[C@H]1CCOC1 (single isomer, unassigned) [Example 173.0, (2S,3R)-3-(5-cyano-2-pyrimidin-yl)-N-(4-(2,6-dimethoxyphenyl)-5-((3R)-tetrahydro-3-furanyl)-4H-1,2,4-triazol-3-yl)-2-butanesulfonamide or (2S,3R)-3-(5-cyano-2-pyrimidinyl)-N-(4-(2,6-dimethoxyphenyl)-5-((3S)-tetrahydro-3-furanyl)-4H-1,2,4-triazol-3-yl)-2-butanesulfonamide]
EC50: 130 nM

COc1cccc(OC)c1-n1c(NS(=O)(=O)[C@@H](C)[C@H](C)c2ncc(C#N)cn2)nnc1[C@H]1CCOC1 (single isomer, unassigned) [Example 174.0, (2S,3R)-3-(5-cyano-2-pyrimidin-yl)-N-(4-(2,6-dimethoxyphenyl)-5-((3R)-tetrahydro-3-furanyl)-4H-1,2,4-triazol-3-yl)-2-butanesulfonamide or (2S,3R)-3-(5-cyano-2-pyrimidinyl)-N-(4-(2,6-dimethoxyphenyl)-5-((3S)-tetrahydro-3-furanyl)-4H-1,2,4-triazol-3-yl)-2-butanesulfonamide]
EC50: 210 nM

COc1cnc([C@@H](C)[C@H](C)S(=O)(=O)Nc2nnc([C@@H]3COCCO3)n2-c2c(OC)cccc2OC)nc1 (single isomer, unassigned) [Example 175.0, (2S,3R)-N-(4-(2,6-dimethoxyphenyl)-5-((2R)-1,4-dioxan-2-yl)-4H-1,2,4-triazol-3-yl)-3-(5-methoxy-2-pyrimidinyl)-2-butanesulfonamide or (2S,3R)-N-(4-(2,6-dimethoxyphenyl)-5-((2S)-1,4-dioxan-2-yl)-4H-1,2,4-triazol-3-yl)-3-(5-methoxy-2-pyrimidinyl)-2-butanesulfonamide]
EC50: 3.5 nM

COc1cnc([C@@H](C)[C@H](C)S(=O)(=O)Nc2nnc([C@@H]3COCCO3)n2-c2c(OC)cccc2OC)nc1 (single isomer, unassigned) [Example 176.0, (2S,3R)-N-(4-(2,6-dimethoxyphenyl)-5-((2R)-1,4-dioxan-2-yl)-4H-1,2,4-triazol-3-yl)-3-(5-methoxy-2-pyrimidinyl)-2-butanesulfonamide or (2S,3R)-N-(4-(2,6-dimethoxyphenyl)-5-((2S)-1,4-dioxan-2-yl)-4H-1,2,4-triazol-3-yl)-3-(5-methoxy-2-pyrimidinyl)-2-butanesulfonamide]
EC50: 34 nM
